Measured values published in patent publication US7713923B2, “Self-assembling peptides incorporating modifications and methods of use thereof” (Massachusetts Institute of Technology, priority 2003, dated 2010).

Experiments:
[1] = tested on: human aortic endothelial cells (HAEC); assay: HAEC monolayer formation on peptide scaffolds; assay type: cell-based; design: key to HAEC monolayer formation, peptide content 100% / HAEC monolayer formation, Blending (9:1): +: Score for optimal monolayer formation and cell survival; −: Score for poor or none monolayer formation and cell survival
Description: Endothelial cell culture system. Peptide scaffolds (0.5% w/v) were prepared at 100% peptide sequence for RAD16-I or blended with RAD16-I at a radio of 9:1 (RAD16-I: peptide sequence, on a volume/volume basis) for the three other cases (YIG, RYV, and TAG). Each solution was filtered (0.2 μm, Acrodysc filters, 4192, PALL, MI), loaded (30 μl) on top of a cell culture chamber insert (10 mm diameter, 136935, Nalge Nunc International, IL), and allowed to form a layer (average thickness=600 μm). Phosphate Buffer Saline (PBS) (600 μl) was added at the bottom of the well to induce hydrogel formation, and the system was incubated at room temperature for 30 min. PBS was replaced with culture medium, which was then replaced with fresh medium. The scaffolds were incubated for 1 hour with endothelial cell growth media (EGM-2, Cambrex, MD) in a cell culture incubator at 37° C. with 5% CO2.
(§1) Meanwhile, human aortic endothelial cells (HAEC) (CC-2535, Cambrex, MD) that had been maintained under standard culture conditions (passage 5-6) were harvested at 80% confluence using trypsin and loaded on top of the preformed peptide scaffolds at a cell density of 8×10^4 cells/cm^2 and cultured in the cell culture incubator at 37° C. with 5% CO2. Cell attachment assays were performed one hour after the initial cell loading. To perform the assays, the covering media was removed, and unattached cells were counted on a hematocytometer. Cell counting was performed by mechanically disrupting the scaffold containing cells by pipetting up and down and then counting cells on a hematocytometer after performing Trypan blue (T 9906, Sigma, MO) exclusion assay staining to assess cell viability. In some experiments, for comparison, EC were cultured on inserts coated with Matrigel or collagen (1.5 mg/ml, i.e. 0.15%) according to standard protocols.
In a first experiment, we tested the ability of HAEC to attach and form a monolayer when seeded on various peptide scaffolds generated by self-assembly of the peptides following addition of PBS to a 0.5%(w/v) solution of the peptide in water. […] HAEC cultured in the presence of scaffolds generated from peptides incorporating the other biologically active peptide motifs either died or formed isolated clusters (FIGS. 9A-9G).
We therefore decided to blend the peptides incorporating biologically active motifs with the prototypic RAD16-I sequence in order to reduce the overall concentration of the biologically active motif presented to cells. We selected a volume/volume ratio of 9:1 (RAD16-I:modified peptide sequence comprising biologically active peptide motif, where peptides were dissolved at equal concentrations on a w/w basis) and generated peptide scaffolds from solutions in which the unmodified and modified peptides were present in this ratio.

[2] = tested on: human aortic endothelial cells (HAEC); assay: HAEC proliferation and competition assays with soluble peptide motifs; assay type: cell-based; settings: 100% RAD16-I, no soluble peptide, improved cell isolation
Description: as §1
Competition assays with free soluble peptide sequences. HAEC were cultured as described on peptide scaffolds in cell culture inserts as described above. For each scaffold, the corresponding soluble motif sequence, or one of the other motifs not present in the scaffold, was added to the media of HAEC cultures at a final concentration of 400 μg/ml. Half of the media was changed every other day. […] The next day, cell numbers were evaluated as described above. […]

CC(=O)N[C@@H](CCCNC(=N)N)C(=O)N[C@@H](C)C(=O)N[C@@H](CC(=O)O)C(=O)N[C@@H](C)C(=O)N[C@@H](CCCNC(=N)N)C(=O)N[C@@H](C)C(=O)N[C@@H](CC(=O)O)C(=O)N[C@@H](C)C(=O)N[C@@H](CCCNC(=N)N)C(=O)N[C@@H](C)C(=O)N[C@@H](CC(=O)O)C(=O)N[C@@H](C)C(=O)N[C@@H](CCCNC(=N)N)C(=O)N[C@@H](C)C(=O)N[C@@H](CC(=O)O)C(=O)N[C@@H](C)C(N)=O [RAD16-I, AcN-(RADA)4-CONH2]
HAEC monolayer formation, scaffold of 100% peptide ([1]; 0.5% (w/v) peptide, no blending): monolayer formation was observed | HAEC monolayer formation and cobblestone morphology on gel systems ([1]; after 3 days in culture): less than on blended scaffolds or on Matrigel or collagen-I | HAEC monolayer formation, peptide content 100% ([1]; scaffold of 100% peptide, 0.5% (w/v)): +¶ | HAEC proliferation lower than on scaffolds made from peptide blends [2]: 2-2.5 fold
